From patent US5698538A, “Boronic acid and ester inhibitors of thrombin” (The DuPont Merck Pharmaceutical Company, priority 1996, dated 1997)
Structures can show the parent of a compound that is named as a salt. Where two headings read alike, the source gives them in different places.

Experiments:
Format in all cases: biochemical
[1] = target: T1, human factor Xa (Homo sapiens, UniProt P00742); assay: Inhibition of human factor Xa (chromogenic substrate S2222), inhibitory constant Ki; conditions: S2222, pH 7.5, 30 minutes, read-out: Ki values for inhibition of Serine Proteases: Factor Xa
T1 construct: purchased Enzyme Research Laboratories, South Bend, Ind
T1 sequence (P00742 235-488 limits assumed): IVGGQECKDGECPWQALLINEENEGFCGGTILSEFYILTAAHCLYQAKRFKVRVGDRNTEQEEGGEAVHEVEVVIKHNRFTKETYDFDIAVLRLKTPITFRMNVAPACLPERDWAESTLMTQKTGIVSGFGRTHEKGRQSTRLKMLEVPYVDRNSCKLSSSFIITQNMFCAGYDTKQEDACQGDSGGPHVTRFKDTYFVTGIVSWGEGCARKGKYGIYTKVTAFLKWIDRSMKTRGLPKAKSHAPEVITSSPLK
T1 sequence (P00742 41-179 partner limits assumed): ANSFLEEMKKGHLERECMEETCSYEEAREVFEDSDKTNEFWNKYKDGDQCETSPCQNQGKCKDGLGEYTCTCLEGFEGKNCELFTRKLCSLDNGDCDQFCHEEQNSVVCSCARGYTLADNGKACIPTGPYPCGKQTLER
Protocol: (§1) The effectiveness of compounds of the present invention as inhibitors of blood coagulation proteases was determined using purified human proteases and synthetic substrates following procedures similar to those described in Kettner et al. (1990).
(§2) For these assays, the rate of enzymatic (thrombin, Factor Xa, and Factor VIIa) hydrolysis of chromogenic substrates (S2238 (H-D-Phe-Pip-Arg-pNA), S2222, and S2288, respectively; Kabi Pharmacia, Franklin, Ohio.) was measured both in the absence and presence of compounds of the present invention. […] A decrease in the rate of absorbance change at 405 nm in the presence of inhibitor is indicative of enzyme inhibition. The results of this assay are expressed as inhibitory constant, Ki.
(§3) Thrombin and Xa determinations were made in 0.10M sodium phosphate buffer, pH 7.5, containing 0.20M NaCl, and 0.5% PEG 8000. VIIa determinations were made in 0.05M tris buffer, pH 7.6, containing 0.10M NaCl, 4 mM CaCl2, and 0.1% bovine serum albumin. The Michaelis constant, Km, for substrate hydrolysis was determined at 5° C. using the method of Lineweaver and Burk.
(§4) Values of Ki were determined by allowing 0.2-0.5 nM human thrombin or human factor Xa (Enzyme Research Laboratories, South Bend, Ind.), or 50 nM human factor VIIa (BiosPacific, Emeryville, Calif.) react with the substrate (0.20 mM-1 mM) in the presence of inhibitor. Reactions were allowed to go for 30 minutes and the velocities (rate of absorbance change vs time) were measured in the time frame of 25-30 minutes. The following relationship was used to calculate Ki values. [formula] where: vo is the velocity of the control in the absence of inhibitor;
(§5) vs is the velocity in the presence of inhibitor;
(§6) I is the concentration of inhibitor;
(§7) Ki is the dissociation constant of the enzyme: inhibitor complex;
(§8) S is the concentration of substrate;
(§9) Km is the Michaelis constant.

[2] = target: T2, human factor VIIa (Homo sapiens, UniProt P08709); assay: Inhibition of human factor VIIa (chromogenic substrate S2288), inhibitory constant Ki
T2 construct: Factor VIIa in the extrinsic pathway; purchased BiosPacific, Emeryville, Calif
T2 sequence (P08709 213-466 limits assumed): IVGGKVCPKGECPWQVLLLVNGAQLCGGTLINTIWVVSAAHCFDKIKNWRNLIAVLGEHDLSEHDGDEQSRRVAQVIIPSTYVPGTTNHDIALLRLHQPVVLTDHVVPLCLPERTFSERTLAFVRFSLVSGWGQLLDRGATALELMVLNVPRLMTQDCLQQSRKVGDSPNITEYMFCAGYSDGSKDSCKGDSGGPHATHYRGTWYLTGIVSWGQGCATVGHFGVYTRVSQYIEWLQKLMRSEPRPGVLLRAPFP
T2 sequence (P08709 61-212 partner limits assumed): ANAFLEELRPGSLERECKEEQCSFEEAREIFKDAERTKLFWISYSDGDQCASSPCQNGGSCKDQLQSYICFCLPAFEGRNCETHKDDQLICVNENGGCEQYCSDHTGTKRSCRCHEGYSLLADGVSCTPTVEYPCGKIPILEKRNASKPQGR
Protocol: as §1, §2, §3, §4, §5, §6, §7, §8, §9

[3] = target: T3, human thrombin (Homo sapiens, UniProt P00734); assay: Inhibition of human thrombin (chromogenic substrate S2238), inhibitory constant Ki; conditions: 0.2-0.5 nM human thrombin, S2238, pH 7.5, 30 minutes; read-out: Ki values for inhibition of Serine Proteases: Thrombin
T3 construct: purchased Enzyme Research Laboratories, South Bend, Ind
Protocol: as §1, §2, §3, §4, §5, §6, §7, §8, §9

[4] = 50 nM human factor VIIa, S2288, pH 7.6, 4 mM CaCl2, 30 minutes, read-out: Ki values for inhibition of Serine Proteases: Factor VIIa

Ki [1]	Ki [2, 4]	Ki [3]	Ki [2]	Compound
500 to 50000 nM	500 to 50000 nM	< 500 nM	–	CC1(C)C2CC3OB([C@H](CCCCN)NC(=O)Cn4nc(CCc5ccccc5)nc4COCc4ccccc4)OC3(C)C1C2 (single isomer, unassigned) [Example 2781]
500 to 50000 nM	500 to 50000 nM	< 500 nM	–	CC1(C)C2CC3OB([C@H](CCCCN)NC(=O)c4cnc(-c5ccccc5)nc4-c4ccccc4)OC3(C)C1C2 (single isomer, unassigned) [Example 3465]
< 500 nM	< 500 nM	< 500 nM	–	CC1(C)[C@@H]2C[C@H]3OB([C@H](CCCNC(=N)N)NC(=O)c4ccc(-c5ccccc5)c(N)c4)O[C@@]3(C)[C@H]1C2 [Example 299]
< 500 nM	500 to 50000 nM	< 500 nM	–	CC(C)(C)NS(=O)(=O)c1ccccc1-c1ccc(C(=O)N[C@@H](CCCNC=N)B2O[C@@H]3C[C@@H]4C[C@@H](C4(C)C)[C@]3(C)O2)cc1 [Example 302]
500 to 50000 nM	500 to 50000 nM	< 500 nM	–	CC(C)(C)OC(=O)Nc1cc(-c2ccccc2)ccc1C(=O)N[C@@H](CCCNC(=N)N)B1O[C@@H]2C[C@@H]3C[C@@H](C3(C)C)[C@]2(C)O1 [Example 303]
500 to 50000 nM	500 to 50000 nM	< 50000 nM	–	COCCC[C@H](NC(=O)c1ccc(-c2ccccc2S(N)(=O)=O)cc1C)B1O[C@@H]2C[C@@H]3C[C@@H](C3(C)C)[C@]2(C)O1 [Example 305]
500 to 50000 nM	500 to 50000 nM	< 50000 nM	–	CC1(C)[C@@H]2C[C@H]3OB([C@H](CCCCN)NC(=O)c4ccc(-c5ccccc5)nc4)O[C@@]3(C)[C@H]1C2 [Example 468]
500 to 50000 nM	500 to 50000 nM	< 50000 nM	–	NCCCC[C@H](NC(=O)c1ccc(-c2ccccc2)nc1)B(O)O [Example 474]
500 to 50000 nM	–	< 500 nM	500 to 50000 nM	Cc1nc(Cc2ccccc2)n(CC(=O)N[C@@H](CCCCN)B2O[C@@H]3C[C@@H]4C[C@@H](C4(C)C)[C@]3(C)O2)n1 [Example 888]
500 to 50000 nM	500 to 50000 nM	< 500 nM	–	CCCc1nc(Cc2ccccc2)n(CC(=O)N[C@@H](CCCCN)B2O[C@@H]3C[C@@H]4C[C@@H](C4(C)C)[C@]3(C)O2)n1 [Example 890]
500 to 50000 nM	500 to 50000 nM	< 500 nM	–	CSCc1nc(Cc2ccccc2)n(CC(=O)N[C@@H](CCCCN)B2O[C@@H]3C[C@@H]4C[C@@H](C4(C)C)[C@]3(C)O2)n1 [Example 892]
500 to 50000 nM	–	< 500 nM	500 to 50000 nM	CC1(C)[C@@H]2C[C@H]3OB([C@H](CCCCN)NC(=O)Cn4nc(CC#N)nc4Cc4ccccc4)O[C@@]3(C)[C@H]1C2 [Example 898, R-N^1-(3-Cyanomethyl-5-phenylmethyl-1,2,4-triazol-1-yl)acetyl-borolysine, (+)-pinanediol ester, hydrochloride]
500 to 50000 nM	> 500000 nM	< 50000 nM	–	CC1(C)[C@@H]2C[C@H]3OB([C@H](CCCCN)NC(=O)Cn4nc(CC(=O)O)nc4Cc4ccccc4)O[C@@]3(C)[C@H]1C2 [Example 905]
> 500000 nM	500 to 50000 nM	< 500 nM	–	CC1(C)[C@@H]2C[C@H]3OB([C@H](CCCCN)NC(=O)Cn4nc(CO)nc4Cc4ccccc4)O[C@@]3(C)[C@H]1C2 [Example 913]
500 to 50000 nM	500 to 50000 nM	< 500 nM	–	CC1(C)[C@@H]2C[C@H]3OB([C@H](CCCCN)NC(=O)Cn4nc(COCc5ccccc5)nc4Cc4ccccc4)O[C@@]3(C)[C@H]1C2 [Example 914]
500 to 50000 nM	500 to 50000 nM	< 500 nM	–	COC(=O)Cc1nc(Cc2ccccc2)n(CC(=O)N[C@@H](CCCCN)B2O[C@@H]3C[C@@H]4C[C@@H](C4(C)C)[C@]3(C)O2)n1 [Example 917]
500 to 50000 nM	–	< 500 nM	500 to 50000 nM	CC1(C)[C@@H]2C[C@H]3OB([C@H](CCCCN)NC(=O)Cn4nc(Cc5ccccc5)nc4Cc4ccccc4)O[C@@]3(C)[C@H]1C2 [Example 921]
500 to 50000 nM	–	< 500 nM	500 to 50000 nM	CC1(C)[C@@H]2C[C@H]3OB([C@H](CCCCN)NC(=O)Cn4nc(-c5cccc([N+](=O)[O-])c5)nc4Cc4ccccc4)O[C@@]3(C)[C@H]1C2 [Example 923]
500 to 50000 nM	–	< 500 nM	500 to 50000 nM	CC1(C)[C@@H]2C[C@H]3OB([C@H](CCCCN)NC(=O)Cn4nc(-c5cccc(N)c5)nc4Cc4ccccc4)O[C@@]3(C)[C@H]1C2 [Example 931]

The remaining lines, values behind:

Compound	Ki [1]	Ki [2, 4]	Ki [3]	Ki [2]
CC1(C)[C@@H]2C[C@H]3OB([C@H](CCCNC(=N)N)NC(=O)c4cccc(-c5ccccc5)c4)O[C@@]3(C)[C@H]1C2 [Example 2]	< 500 nM	< 500 nM	< 500 nM	–
CC1(C)[C@@H]2C[C@H]3OB([C@H](CCCSC(=N)N)NC(=O)c4cccc(-c5ccccc5)c4)O[C@@]3(C)[C@H]1C2 [Example 35]	< 500 nM	500 to 50000 nM	< 500 nM	–
CC1(C)[C@@H]2C[C@H]3OB([C@H](CCCCN)NC(=O)c4cccc(-c5ccccc5)c4)O[C@@]3(C)[C@H]1C2 [Example 68]	500 to 50000 nM	< 500 nM	< 50000 nM	–
CC1(C)[C@@H]2C[C@H]3OB([C@H](CCCNC(=N)N)NC(=O)c4ccc(-c5ccccc5)cc4F)O[C@@]3(C)[C@H]1C2 [Example 199]	< 500 nM	< 500 nM	< 500 nM	–
CC1(C)[C@@H]2C[C@H]3OB([C@H](CCCNC(=N)N)NC(=O)c4ccc(-c5ccccc5)cc4[N+](=O)[O-])O[C@@]3(C)[C@H]1C2 [Example 203]	< 500 nM	< 500 nM	< 500 nM	–
Cc1cc(-c2ccccc2S(=O)(=O)NC(C)(C)C)ccc1C(=O)N[C@@H](CCCNC(=N)N)B(O)O [Example 224]	< 500 nM	< 500 nM	< 500 nM	–
Cc1cc(-c2ccccc2S(N)(=O)=O)ccc1C(=O)N[C@@H](CCCNC(=N)N)B1O[C@@H]2C[C@@H]3C[C@@H](C3(C)C)[C@]2(C)O1 [Example 227]	< 500 nM	500 to 50000 nM	< 500 nM	–
COC(=O)NS(=O)(=O)c1ccccc1-c1ccc(C(=O)N[C@@H](CCCNC(=N)N)B2O[C@@H]3C[C@@H]4C[C@@H](C4(C)C)[C@]3(C)O2)c(C)c1 [Example 231]	< 500 nM	500 to 50000 nM	< 500 nM	–
CC(C)(C)NS(=O)(=O)c1ccccc1-c1ccc(C(=O)N[C@@H](CCCNC(=N)N)B2O[C@@H]3C[C@@H]4C[C@@H](C4(C)C)[C@]3(C)O2)cc1 [Example 261]	< 500 nM	< 500 nM	< 500 nM	–
CC(C)(C)NS(=O)(=O)c1ccccc1-c1ccc(C(=O)N[C@@H](CCCNC(=N)N)B2O[C@@H]3C[C@@H]4C[C@@H](C4(C)C)[C@]3(C)O2)c(Cl)c1 [Example 262]	< 500 nM	< 500 nM	< 500 nM	–
CC(C)(C)NS(=O)(=O)c1ccccc1-c1ccc(C(=O)N[C@@H](CCCNC(=N)N)B(O)O)cc1 [Example 263]	< 500 nM	< 500 nM	< 500 nM	–
Cc1cc(-c2cccc(NC(=O)OC(C)(C)C)c2)ccc1C(=O)N[C@@H](CCCNC(=N)N)B1O[C@@H]2C[C@@H]3C[C@@H](C3(C)C)[C@]2(C)O1 [Example 283]	< 500 nM	500 to 50000 nM	< 500 nM	–
CCN(CC)S(=O)(=O)c1ccccc1-c1ccc(C(=O)N[C@@H](CCCNC(=N)N)B2O[C@@H]3C[C@@H]4C[C@@H](C4(C)C)[C@]3(C)O2)c(C)c1 [Example 286]	< 500 nM	< 500 nM	< 500 nM	–
CC1(C)[C@@H]2C[C@H]3OB([C@H](CCCNC(=N)N)NC(=O)c4ccc(-c5ccccc5)c([N+](=O)[O-])c4)O[C@@]3(C)[C@H]1C2 [Example 298]	< 500 nM	< 500 nM	< 500 nM	–
